{
  "source": "patent US20260262643A1",
  "about": "“HERBICIDAL BENZOXAZINES” (FMC CORPORATION, priority 2022, published 2026)",
  "key": {"ducksalad": {"system": "ducksalad", "experiment": "Test D flooded paddy test", "assay_type": "in vivo, Heteranthera limosa", "settings": "250 g ai/ha, applied to paddy water, visual rating after 13 to 14 days, scale 0 to 100 (0 no effect, 100 complete control)", "method_in_brief": "(§1)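 Visual ratings from 0, meaning no effect, to 100, meaning complete control, were assigned against untreated controls 13 to 14 days after compounds were added to the floodwater of pots kept 3 cm deep, with plants at the 2-leaf stage.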"}, "horseweed": {"system": "horseweed", "experiment": "Test C postemergence", "assay_type": "in vivo, Erigeron canadensis", "settings": "10 days, 0 to 100 scale (0 no effect, 100 complete control)", "method_in_brief": "(§2)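 Pre: seeds in loam/sand, directed soil spray. Post: 1–2 leaf plants, 2–10 cm. Cmpd in non-phytotoxic solvent + surfactant. Greenhouse 10 d; visual rating vs untreated, 0 = none, 100 = complete control.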"}, "ryegrass, Italian [1]": {"system": "ryegrass, Italian", "experiment": "Test C postemergence", "assay_type": "in vivo, Lolium multiflorum", "settings": "10 days, 0 to 100 scale (0 no effect, 100 complete control)", "method_in_brief": "as §2"}, "wheat [2]": {"system": "wheat", "experiment": "Test C postemergence", "assay_type": "in vivo, Triticum aestivum", "settings": "10 days, 0 to 100 scale (0 no effect, 100 complete control)", "method_in_brief": "as §2"}, "blackgrass [3]": {"system": "blackgrass", "experiment": "Test C postemergence", "assay_type": "in vivo, Alopecurus myosuroides", "settings": "10 days, 0 to 100 scale (0 no effect, 100 complete control)", "method_in_brief": "as §2"}, "sedge, umbrella": {"system": "sedge, umbrella", "experiment": "Test D flooded paddy test", "assay_type": "in vivo, Cyperus difformis", "settings": "250 g ai/ha, applied to paddy water, visual rating after 13 to 14 days, scale 0 to 100 (0 no effect, 100 complete control)", "method_in_brief": "as §1"}, "barnyardgrass [4]": {"system": "barnyardgrass", "experiment": "Test D flooded paddy test", "assay_type": "in vivo, Echinochloa crus-galli", "settings": "250 g ai/ha, applied to paddy water, visual rating after 13 to 14 days, scale 0 to 100 (0 no effect, 100 complete control)", "method_in_brief": "as §1"}, "kochia [5]": {"system": "kochia", "experiment": "Test C preemergence", "assay_type": "in vivo, Bassia scoparia", "method_in_brief": "as §2"}, "pigweed, palmer [6]": {"system": "pigweed, palmer", "experiment": "Test C preemergence", "assay_type": "in vivo, Amaranthus palmeri", "method_in_brief": "as §2"}, "ryegrass, Italian [7]": {"system": "ryegrass, Italian", "experiment": "Test C preemergence", "assay_type": "in vivo, Lolium multiflorum", "method_in_brief": "as §2"}, "ragweed [8]": {"system": "ragweed", "experiment": "Test C preemergence", "assay_type": "in vivo, Ambrosia artemisiifolia", "method_in_brief": "as §2"}, "oat, wild [9]": {"system": "oat, wild", "experiment": "Test C preemergence", "assay_type": "in vivo, Avena fatua", "method_in_brief": "as §2"}, "soybean [10]": {"system": "soybean", "experiment": "Test C postemergence", "assay_type": "in vivo, Glycine max", "settings": "10 days, 0 to 100 scale (0 no effect, 100 complete control)", "method_in_brief": "as §2"}, "corn [11]": {"system": "corn", "experiment": "Test C preemergence", "assay_type": "in vivo, Zea mays", "method_in_brief": "as §2"}, "pigweed, palmer [12]": {"system": "pigweed, palmer", "experiment": "Test C postemergence", "assay_type": "in vivo, Amaranthus palmeri", "settings": "10 days, 0 to 100 scale (0 no effect, 100 complete control)", "method_in_brief": "as §2"}, "barnyardgrass [13]": {"system": "barnyardgrass", "experiment": "Test C preemergence", "assay_type": "in vivo, Echinochloa crusgalli", "method_in_brief": "as §2"}, "galium": {"system": "galium", "experiment": "Test C postemergence", "assay_type": "in vivo, Galium aparine", "settings": "10 days, 0 to 100 scale (0 no effect, 100 complete control)", "method_in_brief": "as §2"}, "wheat [14]": {"system": "wheat", "experiment": "Test C preemergence", "assay_type": "in vivo, Triticum aestivum", "method_in_brief": "as §2"}, "blackgrass [15]": {"system": "blackgrass", "experiment": "Test C preemergence", "assay_type": "in vivo, Alopecurus myosuroides", "method_in_brief": "as §2"}, "corn [16]": {"system": "corn", "experiment": "Test C postemergence", "assay_type": "in vivo, Zea mays", "settings": "10 days, 0 to 100 scale (0 no effect, 100 complete control)", "method_in_brief": "as §2"}, "oat, wild [17]": {"system": "oat, wild", "experiment": "Test C postemergence", "assay_type": "in vivo, Avena fatua", "settings": "10 days, 0 to 100 scale (0 no effect, 100 complete control)", "method_in_brief": "as §2"}, "barnyardgrass [18]": {"system": "barnyardgrass", "experiment": "Test C postemergence", "assay_type": "in vivo, Echinochloa crusgalli", "settings": "10 days, 0 to 100 scale (0 no effect, 100 complete control)", "method_in_brief": "as §2"}, "ragweed [19]": {"system": "ragweed", "experiment": "Test C postemergence", "assay_type": "in vivo, Ambrosia artemisiifolia", "settings": "10 days, 0 to 100 scale (0 no effect, 100 complete control)", "method_in_brief": "as §2"}, "rice": {"system": "rice", "experiment": "Test D flooded paddy test", "assay_type": "in vivo, Oryza sativa", "settings": "250 g ai/ha, applied to paddy water, visual rating after 13 to 14 days, scale 0 to 100 (0 no effect, 100 complete control)", "method_in_brief": "as §1"}, "green foxtail [20]": {"system": "green foxtail", "experiment": "Test C preemergence", "assay_type": "in vivo, Setaria viridis", "method_in_brief": "as §2"}, "green foxtail [21]": {"system": "green foxtail", "experiment": "Test C postemergence", "assay_type": "in vivo, Setaria viridis", "settings": "10 days, 0 to 100 scale (0 no effect, 100 complete control)", "method_in_brief": "as §2"}, "kochia [22]": {"system": "kochia", "experiment": "Test C postemergence", "assay_type": "in vivo, Bassia scoparia", "settings": "10 days, 0 to 100 scale (0 no effect, 100 complete control)", "method_in_brief": "as §2"}, "soybean [23]": {"system": "soybean", "experiment": "Test C preemergence", "assay_type": "in vivo, Glycine max", "method_in_brief": "as §2"}, "[24]": {"settings": "500 g ai/ha, preemergence, 0 to 100 scale (0 no effect, 100 complete control)"}, "[25]": {"settings": "Preemergence, 125 g ai/ha, 0 to 100 scale, 0 no effect, 100 complete control"}},
  "data": [
    {"smiles": "CCOC[C@H]1CN(C(=O)c2cc(-n3cnc(C(C)C)n3)ccc2OC)c2cccc(Cl)c2O1", "note": "[Compound 341]", "values": [
      {"measurement": "Plant response rating, Ducksalad (Flood)", "setting": "ducksalad", "value": 70},
      {"measurement": "Plant response rating, Horseweed", "setting": "horseweed; 500 g ai/ha, postemergence", "value": 60},
      {"measurement": "Plant response rating, Horseweed", "setting": "horseweed; Postemergence, 125 g ai/ha", "value": 60},
      {"measurement": "Plant response rating, Ryegrass, Italian", "setting": "ryegrass, Italian [1]; 500 g ai/ha, postemergence", "value": 60},
      {"measurement": "Plant response rating, Ryegrass, Italian", "setting": "ryegrass, Italian [1]; Postemergence, 125 g ai/ha", "value": 30},
      {"measurement": "Plant response rating, Wheat", "setting": "wheat [2]; 500 g ai/ha, postemergence", "value": 20},
      {"measurement": "Plant response rating, Wheat", "setting": "wheat [2]; Postemergence, 125 g ai/ha", "value": 10},
      {"measurement": "Plant response rating, Blackgrass", "setting": "blackgrass [3]; 500 g ai/ha, postemergence", "value": 50},
      {"measurement": "Plant response rating, Blackgrass", "setting": "blackgrass [3]; Postemergence, 125 g ai/ha", "value": 10},
      {"measurement": "Plant response rating, Sedge, Umbrella (Flood)", "setting": "sedge, umbrella", "value": 90},
      {"measurement": "Plant response rating, Barnyardgrass (Flood)", "setting": "barnyardgrass [4]", "value": 25},
      {"measurement": "Kochia plant response rating", "setting": "kochia [5]; [24]", "value": 100},
      {"measurement": "Plant response rating, Kochia", "setting": "kochia [5]; [25]", "value": 100},
      {"measurement": "Pigweed, Palmer plant response rating", "setting": "pigweed, palmer [6]; [24]", "value": 100},
      {"measurement": "Plant response rating, Pigweed, Palmer", "setting": "pigweed, palmer [6]; [25]", "value": 100},
      {"measurement": "Ryegrass, Italian plant response rating", "setting": "ryegrass, Italian [7]; [24]", "value": 100},
      {"measurement": "Plant response rating, Ryegrass, Italian", "setting": "ryegrass, Italian [7]; [25]", "value": 80},
      {"measurement": "Ragweed plant response rating", "setting": "ragweed [8]; [24]", "value": 100},
      {"measurement": "Plant response rating, Ragweed", "setting": "ragweed [8]; [25]", "value": 80},
      {"measurement": "Oat, Wild plant response rating", "setting": "oat, wild [9]; [24]", "value": 80},
      {"measurement": "Plant response rating, Oat, Wild", "setting": "oat, wild [9]; [25]", "value": 50},
      {"measurement": "Plant response rating, Soybean", "setting": "soybean [10]; 500 g ai/ha, postemergence", "value": 100},
      {"measurement": "Plant response rating, Soybean", "setting": "soybean [10]; Postemergence, 125 g ai/ha", "value": 100},
      {"measurement": "Corn plant response rating", "setting": "corn [11]; [24]", "value": 30},
      {"measurement": "Plant response rating, Corn", "setting": "corn [11]; [25]", "value": 20},
      {"measurement": "Plant response rating, Pigweed, Palmer", "setting": "pigweed, palmer [12]; 500 g ai/ha, postemergence", "value": 100},
      {"measurement": "Plant response rating, Pigweed, Palmer", "setting": "pigweed, palmer [12]; Postemergence, 125 g ai/ha", "value": 80},
      {"measurement": "Barnyardgrass plant response rating", "setting": "barnyardgrass [13]; [24]", "value": 100},
      {"measurement": "Plant response rating, Barnyardgrass", "setting": "barnyardgrass [13]; [25]", "value": 90},
      {"measurement": "Plant response rating, Galium", "setting": "galium; 500 g ai/ha, postemergence", "value": 100},
      {"measurement": "Plant response rating, Galium", "setting": "galium; Postemergence, 125 g ai/ha", "value": 90},
      {"measurement": "Wheat plant response rating", "setting": "wheat [14]; [24]", "value": 30},
      {"measurement": "Plant response rating, Wheat", "setting": "wheat [14]; [25]", "value": 30},
      {"measurement": "Blackgrass plant response rating", "setting": "blackgrass [15]; [24]", "value": 80},
      {"measurement": "Plant response rating, Blackgrass", "setting": "blackgrass [15]; [25]", "value": 20},
      {"measurement": "Plant response rating, Corn", "setting": "corn [16]; 500 g ai/ha, postemergence", "value": 80},
      {"measurement": "Plant response rating, Corn", "setting": "corn [16]; Postemergence, 125 g ai/ha", "value": 0},
      {"measurement": "Plant response rating, Oat, Wild", "setting": "oat, wild [17]; 500 g ai/ha, postemergence", "value": 20},
      {"measurement": "Plant response rating, Oat, Wild", "setting": "oat, wild [17]; Postemergence, 125 g ai/ha", "value": 10},
      {"measurement": "Plant response rating, Barnyardgrass", "setting": "barnyardgrass [18]; 500 g ai/ha, postemergence", "value": 70},
      {"measurement": "Plant response rating, Barnyardgrass", "setting": "barnyardgrass [18]; Postemergence, 125 g ai/ha", "value": 20},
      {"measurement": "Plant response rating, Ragweed", "setting": "ragweed [19]; 500 g ai/ha, postemergence", "value": 90},
      {"measurement": "Plant response rating, Ragweed", "setting": "ragweed [19]; Postemergence, 125 g ai/ha", "value": 60},
      {"measurement": "Plant response rating, Rice (Flood)", "setting": "rice", "value": 0},
      {"measurement": "Foxtail, Green plant response rating", "setting": "green foxtail [20]; [24]", "value": 100},
      {"measurement": "Plant response rating, Foxtail, Green", "setting": "green foxtail [20]; [25]", "value": 100},
      {"measurement": "Plant response rating, Foxtail, Green", "setting": "green foxtail [21]; 500 g ai/ha, postemergence", "value": 70},
      {"measurement": "Plant response rating, Foxtail, Green", "setting": "green foxtail [21]; Postemergence, 125 g ai/ha", "value": 30},
      {"measurement": "Plant response rating, Kochia", "setting": "kochia [22]; 500 g ai/ha, postemergence", "value": 90},
      {"measurement": "Plant response rating, Kochia", "setting": "kochia [22]; Postemergence, 125 g ai/ha", "value": 80},
      {"measurement": "Soybean plant response rating", "setting": "soybean [23]; [24]", "value": 60},
      {"measurement": "Plant response rating, Soybean", "setting": "soybean [23]; [25]", "value": 100}
    ]}
  ]
}
